Results taken from patent publication US20090220997A1, “Stimulating G Protein-Coupled Receptors” (MAYO FOUNDATION FOR MEDICAL EDUCATION AND RESEARCH, priority 2005, published 2009).
Bridge positions count the residues as written; N and C are the ends. Square brackets hold non-standard residues; d marks the D form. Ends that are not written are not given here. Dap = NC[C@H](N)C(=O)O

Assays:
VPAC1 receptor = target: T1, VPAC1 receptor (Rattus norvegicus, UniProt P30083); assay: cAMP accumulation in cells expressing the VPAC1 receptor; type: cell-based
T1 sequence (P30083 31-459): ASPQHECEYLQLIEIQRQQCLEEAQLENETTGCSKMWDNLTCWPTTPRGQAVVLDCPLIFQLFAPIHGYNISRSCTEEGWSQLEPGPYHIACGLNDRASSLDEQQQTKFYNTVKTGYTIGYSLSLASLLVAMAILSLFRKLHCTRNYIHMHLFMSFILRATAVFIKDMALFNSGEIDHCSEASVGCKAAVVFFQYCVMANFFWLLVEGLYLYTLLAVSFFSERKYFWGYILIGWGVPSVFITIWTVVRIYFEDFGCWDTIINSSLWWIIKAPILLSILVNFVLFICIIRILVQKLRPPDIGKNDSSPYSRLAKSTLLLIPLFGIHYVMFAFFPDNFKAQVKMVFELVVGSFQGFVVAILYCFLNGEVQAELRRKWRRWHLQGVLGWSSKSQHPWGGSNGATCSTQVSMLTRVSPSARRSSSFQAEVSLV
From the text: (§1) FIG. 4 contains a series of graphs plotting cAMP accumulation versus concentration of amino-terminal polypeptides from the calcitonin (residues 73-80; SEQ ID NO:6) and VPAC1 (residues 51-71; SEQ ID NO:4) receptors that were used to stimulate cells expressing Class B receptors.
(§2) FIG. 6 contains a series of graphs plotting cAMP accumulation versus concentration of the WDN tripeptide or amino-terminal polypeptides from the VPAC1 receptor (residues 51-71; SEQ ID NO:4), the calcitonin receptor (residues 73-80; SEQ ID NO:6), and the GLP1R (residues 63-70; SEQ ID NO:22) that were used to stimulate cells expressing Class B receptors as indicated.
(§3) Polypeptides representing the analogous region of the amino terminus of the Class B G protein-coupled calcitonin and VPAC1 receptors (FIG. 1) were also synthesized. […] The agonist activity of these endogenous polypeptides was not limited to the corresponding receptors. The polypeptides were also active at other structurally-related family members (FIG. 4).
(§4) Additional experiments were performed and curves were regenerated (FIG. 6), as described herein and as described elsewhere (Dong et al., Mol. Pharmacol., 70(1):206-13 (2006)). […] Each polypeptide used to generate the data presented in FIG. 6 was a cyclic polypeptide, except for the VPAC1(51-71) polypeptide. […]

human GLP1R = human GLP1R (Homo sapiens, UniProt P43220); assay: cAMP accumulation in cells expressing the GLP1R; type: cell-based
Sequence of human GLP1R (P43220 24-463 L260F/A316G): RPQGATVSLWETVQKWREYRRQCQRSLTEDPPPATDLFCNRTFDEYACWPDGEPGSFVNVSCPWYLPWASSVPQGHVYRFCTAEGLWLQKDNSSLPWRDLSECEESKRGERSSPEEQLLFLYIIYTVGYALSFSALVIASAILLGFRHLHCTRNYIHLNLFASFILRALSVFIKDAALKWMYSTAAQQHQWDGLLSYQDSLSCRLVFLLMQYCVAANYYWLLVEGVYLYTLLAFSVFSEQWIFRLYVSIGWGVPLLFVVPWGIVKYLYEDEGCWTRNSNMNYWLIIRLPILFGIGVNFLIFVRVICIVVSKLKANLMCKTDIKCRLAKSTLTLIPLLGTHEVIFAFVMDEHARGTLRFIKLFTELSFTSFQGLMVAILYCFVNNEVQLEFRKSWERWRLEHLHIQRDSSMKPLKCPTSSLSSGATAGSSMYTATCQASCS
Procedure: as §2
Additional experiments were performed and curves were regenerated (FIG. 6), as described herein and as described elsewhere (Dong et al., Mol. Pharmacol., 70(1):206-13 (2006)). […] Each polypeptide used to generate the data presented in FIG. 6 was a cyclic polypeptide, except for the VPAC1(51-71) polypeptide. Linear versions of each polypeptide were also tested and found to behave in a similar manner as the corresponding cyclic polypeptides, with similar potencies and efficacies.

Class B receptors = assay: cAMP accumulation in cells expressing Class B receptors; type: cell-based; conditions: receptors other than the corresponding receptor
From the text: as §1, §2, §3, §4

secretin receptor = target: T2, secretin receptor (Rattus norvegicus, UniProt P23811); assay: cAMP accumulation in CHO cells expressing the secretin receptor (CHO-SecR); type: cell-based; conditions: for agonist activity (stimulation of cAMP accumulation): 30 min at 37° C.; for potency (cAMP accumulation), relative comparison: secretin receptor (SecR)
T2 construct: expressed in transfected cells; host or cells: CHO (CHO-SecR)
T2 sequence (P23811 26-449): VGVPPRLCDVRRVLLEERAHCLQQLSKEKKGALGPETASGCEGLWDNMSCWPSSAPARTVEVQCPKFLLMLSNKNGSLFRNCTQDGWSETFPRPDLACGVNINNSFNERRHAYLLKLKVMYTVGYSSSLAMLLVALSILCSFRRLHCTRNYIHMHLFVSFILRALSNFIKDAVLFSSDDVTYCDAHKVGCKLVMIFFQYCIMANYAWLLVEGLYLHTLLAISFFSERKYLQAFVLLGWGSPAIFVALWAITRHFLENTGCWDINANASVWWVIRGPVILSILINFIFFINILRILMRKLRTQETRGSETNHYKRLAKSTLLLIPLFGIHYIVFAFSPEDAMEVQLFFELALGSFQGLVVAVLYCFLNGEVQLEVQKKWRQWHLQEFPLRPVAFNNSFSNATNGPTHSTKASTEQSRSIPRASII
From the text: (§5) FIG. 2 contains a series of graphs plotting accumulation of cAMP versus concentration of polypeptide used to stimulate cells. Presented in panel A are curves of cAMP accumulation in Chinese hamster ovary cells expressing the secretin receptor (CHO-SecR), and in the cells of the parental CHO cell line not expressing the secretin receptor, in response to increasing concentrations of secretin or a synthetic polypeptide (SEQ ID NO:1) corresponding to the region of the amino terminus of the secretin receptor between the first and third conserved cysteine residues, Cys^24 and Cys^53 (corresponding to residues 46 to 75 of GenBank Accession Number AAH81781). Presented in panel B are curves of cAMP accumulation in CHO-SecR cells in response to increasing concentrations of the indicated pentapeptide (SEQ ID NO:3), tripeptides, or dipeptides. Presented in panel C are curves of cAMP accumulation in CHO-SecR cells in response to increasing concentrations of a linear tripeptide, cyclic tripeptides, or a myristolated cyclic tripeptide. Adherent cells that were 75 percent confluent were stimulated with the polypeptide in Krebs-Ringers-HEPES medium for 30 min at 37° C. Cellular cAMP was quantified as previously reported (Holtmann et al., J. Biol. Chem. 270, 14394 (1995)). Values represent means±S.E.M. of data from a minimum of three independent assays performed in duplicate. Myr indicates myristoylated cyclic tripeptide.
It was determined whether a synthetic polypeptide corresponding to the region of the secretin receptor amino terminus between residues 24 and 53 (FIG. 1), which shares no homology with any part of the natural agonist polypeptide, could act as an endogenous agonist ligand. […] The cAMP response was dependent on the concentration of the polypeptide. […] The polypeptide had no effect on cAMP levels in the parental CHO cell line, even at concentrations as high as 100 μM (FIG. 2A).

[1] = system: Class A G protein-coupled cholecystokinin receptor; assay: cAMP levels in CHO cell lines expressing cholecystokinin receptor; type: cell-based; conditions: CHO cell lines expressing high concentrations of cholecystokinin receptor
[2] = system: parental CHO cell line not expressing the secretin receptor; assay: cAMP accumulation in parental CHO cell line; type: cell-based, Chinese hamster; conditions: concentrations as high as 100 μM
From the text: as §5, with “Presented in panel C are curves of cAMP accumulation in CHO-SecR cells in response to increasing concentrations of a linear tripeptide, cyclic tripeptides, or a myristolated cyclic tripeptide. Adherent cells that were 75 percent confluent were stimulated with the polypeptide in Krebs-Ringers-HEPES medium for 30 min at 37° C.” left out, “Values represent means±S.E.M. of data from a minimum of three independent assays performed in duplicate. Myr indicates myristoylated cyclic tripeptide.” left out
It was determined whether a synthetic polypeptide corresponding to the region of the secretin receptor amino terminus between residues 24 and 53 (FIG. 1), which shares no homology with any part of the natural agonist polypeptide, could act as an endogenous agonist ligand. […]

calcitonin receptor = target: T3, calcitonin receptor (Homo sapiens, UniProt P30988); assay: cAMP accumulation in cells expressing the calcitonin receptor; type: cell-based
T3 sequence (P30988 25-474): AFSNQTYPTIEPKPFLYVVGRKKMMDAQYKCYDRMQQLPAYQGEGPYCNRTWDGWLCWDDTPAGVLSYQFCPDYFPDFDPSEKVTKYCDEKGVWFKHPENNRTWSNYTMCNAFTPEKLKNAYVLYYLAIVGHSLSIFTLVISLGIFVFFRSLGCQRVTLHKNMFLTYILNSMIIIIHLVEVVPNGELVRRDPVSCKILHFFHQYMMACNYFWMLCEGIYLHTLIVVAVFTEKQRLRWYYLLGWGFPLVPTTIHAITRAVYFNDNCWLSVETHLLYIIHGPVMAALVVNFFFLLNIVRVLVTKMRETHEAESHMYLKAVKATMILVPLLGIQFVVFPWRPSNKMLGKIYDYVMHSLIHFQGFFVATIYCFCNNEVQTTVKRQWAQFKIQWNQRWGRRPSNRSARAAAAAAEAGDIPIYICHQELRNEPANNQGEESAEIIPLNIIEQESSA
From the text: as §1, §3

In the case of “VPAC1(51-71): polypeptide corresponding to amino acids 51 to 71 of the rat VPAC1 receptor ([Dap]LEEAQLENETTGSSKMWDNLTD; not fully specified (bridges))”, the “agonist activity (cAMP accumulation)” value (VPAC1 receptor) is reported as “low potency agonist activity”, the “agonist activity (cAMP accumulation)” value (human GLP1R) is reported as “active as agonists” and the “activity at other structurally-related family members” value (Class B receptors) is reported as “also active”.
“leucine-tryptophan-aspartate-asparagine-methionine [LWDNM]” was tested, and the “agonist activity (stimulation of cAMP accumulation)” value (secretin receptor; CHO-SecR cells) was “Agonist activity was maintained”.
For “SecR(24-53): polypeptide corresponding to amino acids 46 to 75 of the rat secretin receptor (SEQ ID NO:1) ([Dap]CLQQLSKEKKGALGPETASGSEGLWDNMSCD; cysteine pairing not given here)”, the “effect on cAMP levels” value [1] was “did not affect cAMP levels”, the “agonist activity (stimulation of cAMP accumulation)” value (secretin receptor; CHO-SecR cells) was “weakly potent agonist” and the “effect on cAMP levels” value [2] was “no effect”.
In the case of “CTR(73-80): polypeptide corresponding to amino acids 73 to 80 of the human calcitonin receptor ([Dap]NRTWDGWLD; not fully specified (bridges); listed as Homo sapiens)”, the “activity at other structurally-related family members” value (Class B receptors) is reported as “also active” and the “agonist activity (cAMP accumulation)” value (calcitonin receptor) is reported as “low potency agonist activity”.
With “myristoylated cyclic tripeptide: cyclic WDN polypeptide modified by fatty acid acylation (myristoyl group) ([Dap]WDND; lactam N-C; also: myristoyl group, site not given here)” the “potency (cAMP accumulation), relative comparison” value (secretin receptor) was “further enhanced”.
In the case of “GLP1R(63-70): polypeptide corresponding to amino acid residues 63 to 70 of the human GLP1R (NRTFDEYA; listed as Homo sapiens)”, the “agonist activity (cAMP accumulation)” value (VPAC1 receptor) is reported as “active as an agonist”, the “agonist activity (cAMP accumulation)” value (human GLP1R) is reported as “active as an agonist” and the “agonist activity (stimulation of cAMP accumulation)” value (secretin receptor; CHO-SecR cells) is reported as “active as an agonist”.
For “tryptophan-aspartate-asparagine [linear tripeptide]”, the “agonist activity (stimulation of cAMP accumulation)” value (secretin receptor; CHO-SecR cells) was “stimulated cAMP accumulation”.
With “cyclic WDN (tryptophan-aspartate-asparagine) tripeptide” the “agonist activity (cAMP accumulation)” value (human GLP1R) was “active as agonists”, the “efficacy (cAMP accumulation)” value (secretin receptor; CHO-SecR cells) was “maintained full efficacy” and the “potency (cAMP accumulation), relative comparison” value (secretin receptor) was “enhanced relative to that of the linear polypeptide”.
